{"source": "paper PMC10903759", "about": "(Journal of Genetic Engineering & Biotechnology, 2024)", "tested_on": "leaf rust (Puccinia triticina, CCDS-96-14-1 isolate) urediniospores", "format": "cell-based", "note": "Where no end group is shown, it is not given here.", "data": [{"sequence": "KEICCKELTKPVKCSSDPLCQKLCMEKEKYEDGHCFTILSKCLCMKRCNAKTLATELLA (disulfide (positions not given here)) [CaThi]", "values": [{"measurement": "germination rate of urediniospores", "value": "22.73 % ± 7.39"}]}]}
